Broadly, the inhibition is the change of the read-out against control, counted positive when it falls. A high value points to a response far below the control.

Data set [1] deals with T1, CB1 receptors present in the brain (Mus musculus, UniProt P47746). The data set is described as follows: Measurement (3): blocking of the hypothermic effect induced by CP55940. The data set is classed as in vivo. Set-up: from tissue; host or cells: whole animal, in vivo (brain CB1). As to conditions: iv route at 10 mg/kg.
For data set [2], the target named is T2, CB1 receptors present at the periphery (Mus musculus, UniProt P47746).
T2 construct: from tissue; host or cells: whole mouse, in vivo (peripheral / gastrointestinal CB1)
In words: blocking of the inhibitory effect of CP55940 on the gastrointestinal transit. In kind it is in vivo. As to conditions: po route at 10 mg/kg, mice. The procedure:
A percentage reversion of the effect of CP55940 greater than 50% at 10 mg/kg indicates a significant antagonist power at the level of the CB1 receptors present at the periphery.

The target in data set [3] is T1, CB1 receptors present in the brain. The data set is described as follows: Measurement (2): ex vivo test of binding of [3H]-CP55940 in the brain. Further details: the CB1 receptors present in the brain in mice; from tissue; host or cells: mouse brain, after intravenous administration. As to conditions: iv route at 10 mg/kg, mice.
The nature of data set [4]: Measurement (1): quantification of compound in brain and plasma by LC-MS/MS. In kind it is in vivo. As to conditions: iv route at 3 mg/kg, mouse, read-out: Ratio: Quantity present in the brain / Quantity present in the plasma.

T1 sequence (P47746 whole entry): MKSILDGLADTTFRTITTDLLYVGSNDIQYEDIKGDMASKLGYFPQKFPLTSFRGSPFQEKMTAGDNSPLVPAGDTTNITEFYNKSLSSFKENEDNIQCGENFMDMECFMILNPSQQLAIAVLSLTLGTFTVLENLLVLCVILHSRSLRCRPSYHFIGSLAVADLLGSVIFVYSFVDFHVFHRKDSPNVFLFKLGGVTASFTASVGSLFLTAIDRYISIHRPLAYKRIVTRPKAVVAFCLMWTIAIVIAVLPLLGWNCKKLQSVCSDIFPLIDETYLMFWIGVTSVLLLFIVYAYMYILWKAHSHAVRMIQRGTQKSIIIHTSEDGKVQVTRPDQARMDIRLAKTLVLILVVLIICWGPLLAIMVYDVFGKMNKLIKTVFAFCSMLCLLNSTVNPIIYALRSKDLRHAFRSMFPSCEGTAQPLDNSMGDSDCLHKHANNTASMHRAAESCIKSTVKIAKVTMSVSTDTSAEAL
T2 sequence (P47746 whole entry): as above

For `NC(=O)C1(c2ccccc2)CCN(C(=O)c2cc(-c3ccc(Cl)cc3Cl)n(-c3ccc(Cl)cc3)c2CCCCO)CC1` [compound 13, 1-{[1-(4-chlorophenyl)-5-(2,4-dichlorophenyl)-2-(4-hydroxybutyl)-1H-pyrrol-3-yl]carbonyl}-4-phenylpiperidine-4-carboxamide], the “% reversion of the hypothermic effect of CP55940” value in data set [1] was determined as 58%. For the same compound, in data set [2], the “% reversion of the effect of CP55940 on the GIT” value (shortened to “% reversion … on the GIT”) came out at 100%. For the same compound, the inhibition at 10 mg/kg in data set [3] was found to be 5%.
Turning to `NC(=O)C1(c2ccccc2)CCN(C(=O)c2cc(-c3ccc(Cl)cc3Cl)n(-c3ccc(Cl)cc3)c2CCO)CC1` [compound 14, 1-{[1-(4-chlorophenyl)-5-(2,4-dichlorophenyl)-2-(2-hydroxyethyl)-1H-pyrrol-3-yl]carbonyl}-4-phenylpiperidine-4-carboxamide], the “% reversion of the hypothermic effect of CP55940” value in data set [1] is 60%. In addition, the “% reversion … on the GIT” value in data set [2] is given as 85%. For the same compound, 10 mg/kg produced 27% inhibition in data set [3].
As for `NC(=O)C1(N2CCC(F)(F)CC2)CCN(C(=O)c2cc(-c3ccc(Cl)cc3Cl)n(-c3ccc(Cl)cc3)c2CCCCO)CC1` [compound 17, 1′-{[1-(4-chlorophenyl)-5-(2,4-dichlorophenyl)-2-(4-hydroxybutyl)-1H-pyrrol-3-yl]carbonyl}-4,4-difluoro-1,4′-bipiperidine-4′-carboxamide], in data set [1], the “% reversion of the hypothermic effect of CP55940” value was determined as 60%. The “% reversion … on the GIT” value in data set [2] is 97%. At 10 mg/kg the inhibition in data set [3] was 23%.
`NC(=O)C1(c2ccc(Cl)cc2)CCN(C(=O)c2cc(-c3ccc(Cl)cc3Cl)n(-c3ccc(Cl)cc3)c2CCCO)CC1` [compound 30, 4-(4-chlorophenyl)-1-{[1-(4-chlorophenyl)-5-(2,4-dichlorophenyl)-2-(3-hydroxypropyl)-1H-pyrrol-3-yl]carbonyl}piperidine-4-carboxamide]: the “% reversion of the hypothermic effect of CP55940” value in data set [1] amounted to 32%. In addition, in data set [4], the Kp amounted to 0.06. In addition, the “% reversion … on the GIT” value in data set [2] is 74%. The inhibition at 10 mg/kg in data set [3] was 21%.

These data come from patent US8680102B2, “Pyrrole derivatives, their preparation and their therapeutic application” (Sanofi, priority 2008, dated 2014).
